Measured values as given in PubChem BioAssay AID179 (DTP/NCI, 2004).
Activity calls are given as the source filed them.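 How the source made its calls: active means compounds giving half or more protection of infected cells from virus-caused growth loss, again on retest; inactive means the rest.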

System: CEM cells HIV-1 protection, formazan growth assay
Experiment: NCI AIDS Antiviral Assay
Settings: for IC50: measured here: growth of uninfected CEM cells
Procedure, shortened: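 Protection of CEM cells against HIV-1 was scored from cell growth (soluble formazan) across five concentrations, with parallel uninfected cells. Lack of protection may reflect toxicity.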

SMILES | EC50 [µM] | IC50 [µM] | outcome
Cc1ccc(S(=O)(=O)NC2C(=O)c3ccccc3C(=O)C2n2cnc3ccccc32)cc1 (stereo not drawn) | > 200 | 42.7 | –
O=Nc1c(O)c(S(=O)(=O)O)cc2cc(S(=O)(=O)O)ccc12 | > 200 | 33.1 | –
CC(=O)Oc1ccc(S(=O)(=O)c2ccc(OC(C)=O)cc2)cc1 | > 200 | 9.12 | –
Cc1ccc(S(=O)(=O)/N=S(\C)c2ccc(Cl)cc2)cc1 (stereo not drawn) | > 759 | 178 | –
CCOC(=O)/C(=C\n1c(=S)[nH]c2ccccc21)C(=O)c1ccccc1 | > 200 | > 200 | –
CCOC(=O)C(=O)Nc1cc(Cl)ccc1Cl | > 363 | > 363 | –
Cn1c(-c2ccccc2)cc(-c2ccc3c(c2)OCO3)c1-c1ccsc1 | > 200 | > 200 | –
Cc1cc2c(cc1Cl)SC(NN(C)C)=NS2(=O)=O | > 200 | 117 | –
COc1ccc(Cn2nc(OCc3ccccc3)c3cc([N+](=O)[O-])ccc32)cc1 | > 200 | 25.1 | –
CC12ON=C(c3ccccc3)N1C=CN1C(c3ccccc3)=NOC12 (stereo not drawn) | > 200 | > 200 | –
O=C(c1nc2ccc(Cl)cc2[nH]c1=O)C(O)c1ccc2c(c1)OCO2 (stereo not drawn) | > 501 | 24.5 | –
O=C(/C=C/c1ccc(O)c(O)c1)c1cc(O)cc(O)c1 | > 200 | 15.1 | –
CC(C)[Si](OCC1CC(C[C@H]2CC(C[C@H]3C[C@@H](CO[Si](C(C)C)(C(C)C)C(C)C)OC(C)(C)O3)OC(C)(C)O2)OC(C)(C)O1)(C(C)C)C(C)C (stereo partly drawn) | > 200 | > 200 | –
O=c1c2ccccc2nc2[nH][nH]c(=S)n12 | > 200 | 195 | –
COc1c(Cl)cc(C(=CCC[C@H]2CC[C@@]3(C)C(CC[C@@H]4C3CC[C@]3(C)C(C(C)CCCC(C)C)CCC43)C2)c2cc(Cl)c(OC)c(C(=O)O)c2)cc1C(=O)O (stereo partly drawn) | 12 | 302 | –
O=C(O)/C=C/C(=O)NCCCCCCNC(=O)/C=C/C(=O)O | – | – | inactive
CC(=O)c1sc(Nc2ccc(S(=O)(=O)Nc3nc(C)cc(C)n3)cc2)nc1C | > 200 | 112 | –
CCCCCC(/C=C/[C@@H]1[C@@H](C(O)CCCCCC(=O)OC)C(=O)C[C@H]1O[Si](C)(C)C(C)(C)C)OCOCCOC (stereo partly drawn) | – | – | inactive
Fc1cccc(C2SCc3nc4ccccc4n32)c1 (stereo not drawn) | > 209 | 20.9 | –
COc1ccc(S(=O)(=O)O)cc1N=N/C(=N/Nc1cc(S(=O)(=O)O)ccc1OC)C(=O)Nc1ccccc1 | – | – | inactive
CC(C)OC1=C(CC2(C)OCCO2)C(=O)C12OCCO2 | > 200 | > 200 | –

SMILES | EC50 [µM] | IC50 [µM] | outcome
O=C(c1ccco1)N(C(=S)N1CCN(c2ccccn2)CC1)C1CCCCC1 | > 46.8 | 35.5 | –
CC12CCC3(C1)[C@H](CC2=O)C[C@@H](OC(=O)c1ccccc1)C1C(C)(C(=O)O)CCC[C@@]13C (stereo partly drawn) | > 295 | 13.5 | –
CC1=C(C(=O)O)CCC2(C)C3=C(CCC12)C(=O)C(C(C)C)=CC3=O (stereo not drawn) | > 200 | 12.3 | –
COC(=O)N1N=C(c2ccccc2)C1c1ccccc1 (stereo not drawn) | > 200 | 38 | –
Nc1nc(SCCc2ccccc2)nc2nc3c(c(-c4ccccc4)c12)CCCC3 | > 200 | > 200 | –
COc1ccc2c(C)c(CNc3ccccc3)c(=O)oc2c1OC | > 11 | > 11 | –
O=C(O)c1c(O)c2cc(Br)ccc2oc1=O | > 200 | 120 | –
O=c1c(C(c2ccc([N+](=O)[O-])cc2)c2c(O)c3ccccc3n(-c3ccccc3)c2=O)c(O)c2ccccc2n1-c1ccccc1 | > 11.7 | > 11.7 | –
COc1cc(C(O)CCBr)c(OC)cc1C (stereo not drawn) | > 200 | 2.29 | –
CCc1cccc(C)c1NC(=O)CCc1nnc2s/c(=C\c3cccc4ccccc34)c(=O)n12 | > 200 | 191 | –
CC(=O)OCC1OC(SC2OC(COC(C)=O)C(OC(C)=O)C(OC(C)=O)C2OC(C)=O)C(OC(C)=O)C(OC(C)=O)C1OC(C)=O (stereo not drawn) | 97.7 | > 200 | –
O=c1/c(=N\O)c(=O)c2ccccc2/c1=N\O | > 200 | 10 | –
CC(=O)c1sc2[n+](c1C)C(=O)/C(=C\c1ccccc1Cl)S2 | 31.6 | 110 | –
Cc1ccc(C(=O)/C=C/c2ccccc2O)c(C)c1 | 91.2 | 102 | –
CC(C)(c1ccc(C=O)o1)c1ccc(C(C)(C)c2ccc(C=O)o2)o1 | – | – | inactive
CN(C)CC1CCCCC1O (stereo not drawn) | > 1290 | > 1290 | –
CO/C=C/CCCO | > 2140 | > 2140 | –
CN(C)C[C@@H]1C2C=CC(C2)[C@@H]1CO (stereo partly drawn) | > 490 | > 490 | –
CC(=O)NC(C=O)C(O[C@H](C)C(=O)NC(C)C(=O)NC(CCC(N)=O)C(=O)OCc1ccccc1)C(O)C(O)COC(=O)CCNc1c2ccccc2nc2cccc([N+](=O)[O-])c12 (stereo partly drawn) | > 21.4 | 15.1 | –
O=C(NC1CCCCC1)NS(=O)(=O)c1ccc2c(c1)CCC2 | > 200 | > 200 | –
